# Laboratory results reported in patent US7998935B2, “Quinaldine based semisquaraines and squaraine dyes, process for preparation thereof and use thereof” (Council of Scientific and Industrial Research, priority 2006, dated 2011).
# How the values were obtained:
# [1] = Absorption and fluorescence emission spectra (photophysical properties); assay type: physicochemical
# Source text: Semisquaraine of the general formula 1 in which a quinaldine moiety is linked to the squaric acid through methylene bridge have absorption around 480 nm with high molar extinction coefficient (4.0×10^4 M^−1 cm^−1) which depends on the substitution on the quanaldine unit. […] The absorption and fluorescence emission spectra of representative semisquaraine of the general formula 1 where X=OH, Y=H, Z=H, R^2=CH3 are shown in FIG. 1.
# Similar to the semisquaraines the absorption spectra of these dyes were also dependent on the substitution on the quinaldine moiety. […] The presence of electron withdrawing groups in the quinaldine ring shifts the absorption maxima towards the blue region. […] The absorption and fluorescence emission spectra of representative symmetrical squaraine dye of the general formula 2, where X=I, Y=H, R^2=CH3 are shown in FIG. 2.
# The absorption and fluorescence emission spectra of representative unsymmetrical squaraine dyes of the general formula 3, where X=C6H11O6, Y=H, Q=I, Z=H, R^2=CH3, are shown in FIG. 4.
# [2] = tested on: L1210 mouse lymphoma cells; test: Photocytotoxicity of squaraine dyes with and without visible light (cell survival / proliferation); assay type: cell-based; conditions: for toxicity in the dark: absence of light; for photocytotoxicity (% of cell survival with increasing concentration of dye): under illumination (visible light, 1000 W halogen lamp), on ice
# Protocol: FIG. 5: Photocytotoxicity of the squaraine dyes of general formula 2, where X=I, Y=H, R^2=CH3, and general formula 3, where X=OH, Y=H, Q=I, Z=H, R^2=CH3 in L1210 mouse lymphoma cells. Data gives the number of cell (% of controls) counted after 48 h after the treatment for 22.5 min at 0° C. with various concentrations of the squaraine dyes under dark and under irradiation. Data points represent the mean of three independent experiments (±SD).
# FIG. 6: Photocytotoxicity of the sugar linked and cholesterol-squaraine dyes of general formula 3, where X=C6H11O6, Y=H, Q=I, Z=H, R^2=CH3 and where X=C27H43O3, Y=H, Q=I, Z=H, R^2=CH3 L1210 mouse lymphoma cells. Data gives the number of cell (% of controls) counted after 48 h after the treatment for 22.5 min at 0° C. with various concentrations of the squaraine derivatives under dark and under irradiation. Data points represent the mean of three independent experiments (±SD).
# In order to analyze the cytotoxicity of the squaraine dyes of the general formula 2 wherein X=I, Y=H, R^2=CH3 and 3 wherein X=OH, Y=H, Q=I, Z=H, R^2=CH3, with and without visible light, the cloning efficiencies of L1210 mouse lymphoma cells exposed to various concentrations of the dyes were determined. The light exposure was carried out from a 1000 W halogen lamp at a distance of 33 cm in Ca^2+ and Mg^2+ free PBS (140 mM NaCl, 3 mM KCl, 8 mM […], pH 7.4) on ice (10^6 cells/mL). Illumination for 10 min corresponds to 225 kJ/m^2 between 400 and 800 nm. The cells were pelleted by centrifugation and resuspended in PBSG three times. The cells were resuspended at 3×10^4 cells/mL in fresh medium at 37° C. and the numbers of cells were counted repeatedly for 60 h. From the exponential part of the growth curves (between 24 and 60 h) the number of proliferating cells at the time of resuspension was calculated by extrapolation. Cell survival was defined as the ratio between proliferating and resuspended cells. Results obtained with representative quinaldine based squaraine dyes of the general formula 2 wherein X=I, Y=H, R^2=CH3 and 3 wherein X=OH, Y=H, Q=I, Z=H, are shown in FIG. 5.
# The cytotoxicity induced by squaraine dyes of the general formula 3 wherein X=C6H11O6, Y=H, Q=I, Z=H, R^2=CH3 and X=C27H43O3, Y=H, Q=I, Z=H, R^2=CH3 in mouse lymphoma cells L1210 with and without visible light, was carried out as explained in EXAMPLE 8. Results obtained with representative quinaldine based squaraine dyes of the general formula 3 wherein X=C6H11O6, Y=H, Q=I, Z=H, R^2=CH3 and X=C27H43O3, Y=H, Q=I, Z=H, R^2=CH3 are shown in FIG. 6.
# mammalian AS52 cells = test: Cytotoxicity in the presence and absence of light; assay type: cell-based
# Source text: In the present invention, we have investigated the cytotoxicity of these dyes in mammalian AS52 cells both in the presence and absence of light.
SMILES,absorption maxima ([1]; in methanol) [nm],toxicity in the dark [2],photocytotoxicity (% of cell survival with increasing concentration of dye) [2],further results
CCCCOc1c(C=C2C=Cc3cc(OCC)ccc3N2C)c(=O)c1=O,478,,,
CCCCOc1c(C=C2C=Cc3cc(O)ccc3N2C)c(=O)c1=O,477,,,
CN1/C(=C/C2=C([O-])C(=C\c3ccc4cc(I)ccc4[n+]3C)/C2=O)C=Cc2cc(I)ccc21,,less toxic in the dark,dose dependent photocytotoxicity,absorption maxima ([1]; in DMSO): around 750 nm; emission maxima ([1]; in dimethyl sulfoxide (DMSO)): around 772 nm
CN1/C(=C/C2=C([O-])C(=C\c3ccc4cc(O[C@@H]5O[C@H](CO)[C@@H](O)[C@H](O)[C@H]5O)ccc4[n+]3C)/C2=O)C=Cc2cc(I)ccc21,,very less toxicity in the absence of light,dose dependent photocytotoxicity,cytotoxicity compared with diiodo squaraine dye of general formula 2 (X=I) (mammalian AS52 cells): more cytotoxic; cytotoxicity compared with hydroxyl-substituted squaraine dye of general formula 3 (X=OH) (mammalian AS52 cells): significantly high
CN1/C(=C/C2=C([O-])C(=C\c3ccc4cc(O)ccc4[n+]3C)/C2=O)C=Cc2cc(I)ccc21,,less toxic in the dark,dose dependent photocytotoxicity,
